These results are taken from US20260216134A1, “CHARGED PI-CONJUGATED MOLECULES FOR THE TREATMENT OF MICROBIAL INFECTIONS” (priority 2023, published 2026).

In data set [1] the test system is HEK293 (epithelial-like kidney cells). Kind of data set: Presto Blue viability assay, HEK293. In kind it is cell-based, human. As to conditions: HEK293, Presto Blue, 8 h treatment; read-out: IC50 (concentration needed to inhibit cell viability by 50%). On the procedure: (§1) The biocompatibility of charged pi-conjugated compounds with mammalian cell lines was evaluated by studying the effects of different charged pi-conjugated compound concentrations on the viability of two mammalian cell lines: A549 (epithelial-like lung cells) and HEK293 (epithelial-like kidney cells). […] Dose-response curves were used to determine IC50 values, that is, the concentration of charged pi-conjugated compound needed to inhibit cell viability by 50%. […] The MIC of MRSA USA300 was used to calculate the therapeutic index. MRSA USA300 is a major contributor to community-associated MRSA infections, including skin and soft tissue infections, bacteraemia, endocarditis, bone and joint infections and nosocomial infections. […]
(§2) The biocompatibility of charged pi-conjugated compounds with mammalian cell lines was assessed by determining their impact on the mitochondrial activity of human alveolar basal epithelial adenocarcinoma cells (A549) and human embryonic kidney cells (HEK293T) cells, using the Presto Blue assay according to the manufacturer's protocol. […] After 8 h, Presto Blue cell viability reagent (Thermo Fisher Scientific, Waltham, MA, USA) was added to the cells, and after 2 h of incubation, fluorescence was measured using a microplate reader (BioTek Instruments Inc., Winooski, VT, USA). […] The therapeutic index was calculated from the ratio between IC50 and the MIC.

In another data set the test system is MRSA USA300. The data set can be described thus: Therapeutic index calculation (IC50 of mammalian cell lines / MIC). To be noted: ratio of average IC50 for A549 and HEK293 to MIC in MRSA USA300. On the procedure:
as §1, §2

The subject of another data set is S. aureus ATCC 25923. Kind of data set: Single-step isolation of spontaneous resistant mutants. The format is cell-based, Staphylococcus aureus. The text has this: FIGS. 10A-10C show the development of resistance and mutation rate of bacterial strains subjected to repeated exposure to charged pi-conjugated compounds. (FIG. 10A) Stepwise development of resistance in B. cereus CECT131123, E. faecalis ATCC 29212, S. aureus ATCC 25923, and S. pneumoniae ATCC 49619. Bacterial strains were repeatedly exposed to charged pi-conjugated compounds or the conventional antibiotics ciprofloxacin (CIP), linezolid (LNZ) and vancomycin (VAN) for over 30 cycles. The y-axis indicates the MIC fold change, reflecting increased resistance over repeated treatment. (FIG. 10B) Mutation rate, represented as the frequency of rifampin-resistant cells, in S. aureus ATCC 25923 subjected to repeated cycles of treatment with charged pi-conjugated compounds or the conventional antibiotic ciprofloxacin (CIP). (FIG. 10C) Single-step resistance assessment of spontaneous mutants. […]
To estimate the occurrence of spontaneous charged pi-conjugated compound-resistant mutants, S. aureus cells cultured overnight were resuspended in PBS to yield 10^10 cells mL^−1 and then plated on both selective (charged pi-conjugated compound-containing) and non-selective LB agar plates. After incubation at 37° C. for 24-48 hours, colonies were counted, and the frequency of charged pi-conjugated compound-resistant mutants was calculated. […]

Regarding `C[N+]1=C(/C=C/C2=CC(=C/C=C3/N(CCCCCC(=O)NCCCCCCN)c4ccc5ccccc5c4C3(C)C)/CCC2)C(C)(C)c2c1ccc1ccccc21.Cl.[Cl-]` [Cy7.5-amine, Cyanine 7.5-amine], in data set [1], the IC50 turned out to be 6.3 µM. For the same compound, the therapeutic index in the data set with MRSA USA300 is on record as 1.3. The “MIC of spontaneous resistant mutants” value with S. aureus ATCC 25923 (mutants propagated on fresh plates, compared with WT strain) is on record as “MIC indistinguishable from that of the WT”. In addition, the spontaneous mutation rate with S. aureus ATCC 25923 (plates containing 4×, 8×, 16×MIC, resistant CFU / total CFU) was ≤ 10^−6.
